The values below come from US10844051B2, “Substituted oxazoles for the treatment of cancer” (THE ROYAL INSTITUTION FOR THE ADCANCEMENT OF …, priority 2015, dated 2020).

Common to all, as to format: cell-based
In series [1] the target is T1, ERG (Homo sapiens, UniProt P11308).
T1 sequence (P11308 1-486 isoform P11308-3): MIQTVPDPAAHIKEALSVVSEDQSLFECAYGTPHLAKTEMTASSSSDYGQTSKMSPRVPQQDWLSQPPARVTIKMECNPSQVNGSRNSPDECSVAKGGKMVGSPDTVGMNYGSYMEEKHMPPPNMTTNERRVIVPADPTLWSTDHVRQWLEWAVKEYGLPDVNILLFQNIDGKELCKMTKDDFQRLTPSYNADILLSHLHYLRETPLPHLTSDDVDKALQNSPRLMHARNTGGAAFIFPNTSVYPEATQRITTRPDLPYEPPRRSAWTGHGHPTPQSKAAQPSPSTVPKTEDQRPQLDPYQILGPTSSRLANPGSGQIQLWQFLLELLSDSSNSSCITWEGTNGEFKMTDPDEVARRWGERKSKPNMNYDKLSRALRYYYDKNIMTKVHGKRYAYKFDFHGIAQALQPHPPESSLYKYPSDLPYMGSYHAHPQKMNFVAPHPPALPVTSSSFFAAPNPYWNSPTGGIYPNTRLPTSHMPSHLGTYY
In words: ERG-dependent reporter assay in HEK293 cells. Further details: expressed in transfected cells; host or cells: HEK293. To be noted: PUx3-Luc reporter, 48 hours, designated doses. On the procedure: (§1) HEK293 cells were transiently transfected with empty vector (for the NT) or ERG-expressing plasmid as well as pRL-TK (internal control) and PUx3-Luc reporter. Cells were then exposed to DMSO vehicle or compounds at designated doses for 48 hours. Experiments were done in triplicate.
For orientation: Reporter assays use an easily measured gene product as a stand-in for the process of interest.

The target in series [2] is T2, human STING (hSTING) (Homo sapiens, UniProt Q86WV6).
T2 construct: expressed in transfected cells; host or cells: 293T
In words: hSTING ISRE-luc reporter assay in 293T cells. The conditions noted are these: 24 hours. How it is done:
ISRE-luc (reporter), pRL-TK (internal control) and hSTING-expressing plasmids were transiently transfected into 293T cells. Cells were exposed to DMSO vehicle control or compounds for 24 hours. Experiments were done in triplicate.

Series [3] concerns the target T3, ETV1 (Homo sapiens, UniProt P50549).
T3 construct: expressed in transfected cells; host or cells: HEK293
T3 sequence (P50549 1-477): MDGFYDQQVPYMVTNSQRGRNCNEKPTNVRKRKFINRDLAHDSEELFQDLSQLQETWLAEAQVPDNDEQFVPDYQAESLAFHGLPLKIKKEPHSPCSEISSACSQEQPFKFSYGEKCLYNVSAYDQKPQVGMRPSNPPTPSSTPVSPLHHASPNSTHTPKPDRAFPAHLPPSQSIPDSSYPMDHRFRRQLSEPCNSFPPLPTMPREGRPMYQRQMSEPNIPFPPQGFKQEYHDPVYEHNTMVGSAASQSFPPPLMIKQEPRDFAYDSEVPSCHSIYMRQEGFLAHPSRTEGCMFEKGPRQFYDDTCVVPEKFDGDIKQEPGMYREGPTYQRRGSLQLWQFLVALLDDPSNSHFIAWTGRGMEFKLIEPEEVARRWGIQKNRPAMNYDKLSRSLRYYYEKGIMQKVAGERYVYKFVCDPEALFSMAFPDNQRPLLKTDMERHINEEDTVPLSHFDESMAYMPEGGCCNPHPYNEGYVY
Nature of the series: ETV1-dependent reporter assay in HEK293 cells. The conditions noted are these: 48 hours. On the procedure: as §1
Experiments were done as described above in FIG. 1.1a) except that ERG plasmid was replaced by ETV1 plasmid.

The target of series [4] is T4, human GATA3 (Homo sapiens, UniProt P23771).
T4 construct: expressed in transfected cells; host or cells: IHH
Nature of the series: GATA3-dependent reporter assay in IHH cells. The conditions noted are these: 48 hours. How it is done:
The IHH cells were transiently transfected with empty vector (for the NT) or human GATA3-expressing plasmid as well as pRL-TK (internal control) and GATA-Luc reporter plasmids. Cells were exposed to DMSO vehicle or compounds for 48 hours. Experiments were done in triplicate.

Series [5] addresses T5, human GATA2 (Homo sapiens, UniProt P23769).
T5 construct: expressed in transfected cells; host or cells: IHH
T5 sequence (P23769 1-480): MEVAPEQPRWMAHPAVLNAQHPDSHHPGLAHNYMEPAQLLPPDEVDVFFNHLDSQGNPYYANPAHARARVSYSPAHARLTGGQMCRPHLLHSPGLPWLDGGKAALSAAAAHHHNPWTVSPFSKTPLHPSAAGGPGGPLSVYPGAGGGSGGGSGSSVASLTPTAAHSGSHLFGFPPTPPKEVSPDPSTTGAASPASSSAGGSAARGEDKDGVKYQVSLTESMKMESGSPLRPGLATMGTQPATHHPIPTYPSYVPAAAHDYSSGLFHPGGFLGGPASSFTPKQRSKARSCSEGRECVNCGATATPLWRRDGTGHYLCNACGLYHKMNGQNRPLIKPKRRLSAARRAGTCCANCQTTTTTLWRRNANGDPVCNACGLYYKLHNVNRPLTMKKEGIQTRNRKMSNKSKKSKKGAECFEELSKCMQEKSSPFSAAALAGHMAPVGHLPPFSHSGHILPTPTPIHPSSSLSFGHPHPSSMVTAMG
Nature of the series: GATA2-dependent reporter assay in IHH cells. The conditions noted are these: GATA-Luc reporter, 48 h. On the procedure: K7174 is a known GATA2 inhibitor. The IHH cells were transiently transfected with empty vector (for the NT) or human GATA2-expressing plasmid as well as pRL-TK (internal control) and GATA-Luc reporter plasmids. Cells were exposed to DMSO vehicle or compounds for 48 h. Experiments were in triplicate.

Series [6] concerns hSTING and/or mSTING. In words: hSTING- or mSTING-dependent ISRE-luc reporter assay in 293T cells. The conditions noted are these: 24 hours. How it is done:
ISRE-luc (reporter), pRL-TK (internal control) and hSTING- or mSTING-expressing plasmids were transiently transfected into 293T cells. Cells were exposed to DMSO vehicle control or compounds for 24 hours. Experiments were done in triplicate.

Structures are written as SMILES.

T4 sequence (P23771 whole entry): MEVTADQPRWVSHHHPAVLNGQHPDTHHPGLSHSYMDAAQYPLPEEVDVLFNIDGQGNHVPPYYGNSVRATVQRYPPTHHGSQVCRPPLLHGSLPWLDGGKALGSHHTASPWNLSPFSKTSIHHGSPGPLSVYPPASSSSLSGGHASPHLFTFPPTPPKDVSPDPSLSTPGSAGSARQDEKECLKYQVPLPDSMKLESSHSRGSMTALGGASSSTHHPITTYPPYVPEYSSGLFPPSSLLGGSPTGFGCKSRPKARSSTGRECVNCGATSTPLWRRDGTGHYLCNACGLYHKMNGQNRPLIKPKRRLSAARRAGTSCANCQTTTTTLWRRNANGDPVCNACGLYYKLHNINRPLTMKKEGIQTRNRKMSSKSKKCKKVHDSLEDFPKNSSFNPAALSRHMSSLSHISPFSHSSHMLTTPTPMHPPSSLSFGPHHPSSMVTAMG
T2 sequence (Q86WV6 whole entry H232R): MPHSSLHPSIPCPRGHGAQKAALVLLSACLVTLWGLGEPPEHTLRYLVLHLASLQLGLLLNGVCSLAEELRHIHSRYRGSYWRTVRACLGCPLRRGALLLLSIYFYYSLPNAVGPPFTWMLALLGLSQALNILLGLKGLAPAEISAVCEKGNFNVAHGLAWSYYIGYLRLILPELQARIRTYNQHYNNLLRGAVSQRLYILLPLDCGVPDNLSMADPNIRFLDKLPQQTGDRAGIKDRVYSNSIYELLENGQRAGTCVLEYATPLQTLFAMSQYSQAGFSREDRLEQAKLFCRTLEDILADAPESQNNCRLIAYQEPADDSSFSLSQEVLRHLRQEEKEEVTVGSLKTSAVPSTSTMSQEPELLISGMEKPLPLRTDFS

For `COc1ccc2[nH]c(C)c(Cc3nc(-c4ccccc4)c(-c4ccccc4)o3)c2c1` [Compound 639], the “ERG inhibition in ERG-dependent reporter assay” value (shortened to “ERG inhibition”) in series [1] is on record as “ERG inhibitors”.

On to `COc1cccc(-c2nc(CCc3c[nH]c4ccccc34)oc2-c2cccc(OC)c2)c1` [Compound 641], for which the “activation of hSTING in ISRE-luc reporter assay” value in series [2] is on record as “activate hSTING”. The “ETV1 inhibition in ETV1-dependent reporter assay” value (from here on “ETV1 inhibition”) in series [3] is on record as “ETV1 inhibitors”.

Turning to `Fc1cccc(-c2nc(Cc3c[nH]c4ccccc34)oc2-c2cccc(F)c2)c1` [Compound 650], the “activity against GATA3 in GATA3-dependent reporter assay” value (“activity against GATA3” below) in series [4] (10 μM) is “active against GATA3”. For the same compound, the “activation of hSTING in ISRE-luc reporter assay” value in series [2] is recorded as “activate hSTING”. Further, in series [5], the “GATA2 inhibition in GATA2-dependent reporter assay” value (from here on “GATA2 inhibition”) was “GATA2 inhibitors”. Further, the “ETV1 inhibition” value in series [3] is “ETV1 inhibitors”.

With `Cc1cccc(-c2nc(Cc3c[nH]c4ccccc34)oc2-c2cccc(C)c2)c1` [Compound 651], the “ERG inhibition” value in series [1] is given as “ERG inhibitors”. Also, in series [3], the “ETV1 inhibition” value is “ETV1 inhibitors”.

In the case of `FC(F)(F)c1ccc(-c2nc(Cc3c[nH]c4ccccc34)oc2-c2ccc(C(F)(F)F)cc2)cc1` [Compound 653], in series [2], the “activation of hSTING in ISRE-luc reporter assay” value is “activate hSTING”. In addition, the “ETV1 inhibition” value in series [3] was “ETV1 inhibitors”.

Turning to `Fc1ccccc1-c1nc(Cc2c[nH]c3ccccc23)oc1-c1ccccc1F` [Compound 655], the “ETV1 inhibition” value in series [3] is recorded as “ETV1 inhibitors”.

Consider `FC(F)(F)c1cccc(-c2nc(Cc3c[nH]c4ccccc34)oc2-c2cccc(C(F)(F)F)c2)c1` [Compound 656], for which the “activation of hSTING in ISRE-luc reporter assay” value in series [2] is “activate hSTING”. Further, the “ETV1 inhibition” value in series [3] is “ETV1 inhibitors”.

`C(=C\c1c[nH]c2ccccc12)/c1nc(-c2ccccc2)c(-c2ccccc2)o1` [Compound 657]: the “ETV1 inhibition” value in series [3] is recorded as “ETV1 inhibitors”.

In the case of `FC(F)(F)c1ccccc1-c1nc(Cc2c[nH]c3ccccc23)oc1-c1ccccc1C(F)(F)F` [Compound 659], the “ERG inhibition” value in series [1] is “ERG inhibitors”.

In the case of `Clc1ccc(-c2nc(Cc3c[nH]c4ccccc34)oc2-c2ccc(Cl)cc2)cc1` [Compound 661], the “ERG inhibition” value in series [1] is recorded as “ERG inhibitors”. Further, in series [3], the “ETV1 inhibition” value is “ETV1 inhibitors”.

With `Clc1ccccc1-c1nc(Cc2c[nH]c3ccccc23)oc1-c1ccccc1Cl` [Compound 662], in series [1], the “ERG inhibition” value was “ERG inhibitors”. Moreover, the “ETV1 inhibition” value in series [3] was “ETV1 inhibitors”.

For `Oc1cccc(-c2nc(CCCc3c[nH]c4ccccc34)oc2-c2cccc(O)c2)c1` [Compound 676], the “activity against GATA3” value in series [4] (10 μM) and in series [4] (compounds at 5 μM) was “inactive against GATA3” each time. Further, the “activation of hSTING in ISRE-luc reporter assay” value in series [2] is “activate human STING (hSTING)”. Moreover, the “GATA2 inhibition” value in series [5] is listed as “GATA2 inhibitors”.

Take `Fc1ccccc1-c1nc(CCCc2c[nH]c3ccccc23)oc1-c1ccccc1F` [Compound 678]: the “ERG inhibition” value in series [1] is on record as “ERG inhibitors”. The “activation of hSTING in ISRE-luc reporter assay” value in series [2] is reported as “activate hSTING”.

On to `C(=C\c1nc(-c2ccccc2)c(-c2ccccc2)o1)/c1ccoc1` [Compound 686], for which the “activity against GATA3” value in series [4] (10 μM) is recorded as “active against GATA3”. In series [5], the “GATA2 inhibition” value was “GATA2 inhibitors”.

In the case of `FC(F)(F)c1cccc(Cc2nc(-c3ccccc3)c(-c3ccccc3)o2)c1` [Compound 687], the “activity against GATA3” value in series [4] (10 μM) was “inactive against GATA3”. Also, the “GATA2 inhibition” value in series [5] is “GATA2 inhibitors”.

For the compound `FC(F)(F)c1cccc(/C=C/c2nc(-c3ccccc3)c(-c3ccccc3)o2)c1` [Compound 693], in series [4] (10 μM), the “activity against GATA3” value is “inactive against GATA3”. Besides, the “activation of hSTING in ISRE-luc reporter assay” value in series [2] is “activate hSTING”. Also, the “GATA2 inhibition” value in series [5] is listed as “GATA2 inhibitors”.

Regarding `COc1ccc(-c2nc(Cc3c[nH]c4ccccc34)oc2-c2ccc(O)cc2)cc1` [Compound 697], the “ERG inhibition” value in series [1] was “ERG inhibitors”. In addition, in series [3], the “ETV1 inhibition” value is reported as “ETV1 inhibitors”.

In the case of `COc1ccc(-c2oc(Cc3c[nH]c4ccccc34)nc2-c2ccc(O)cc2)cc1` [Compound 699], in series [1], the “ERG inhibition” value was “ERG inhibitors”.

For `O=C1Nc2ccccc2C1Cc1nc(-c2ccccc2)c(-c2ccccc2)o1` (stereo not drawn) [Compound 700], the “ETV1 inhibition” value in series [3] is reported as “ETV1 inhibitors”.

Regarding `c1ccc(-c2nc(Cc3c[nH]c4ccccc34)oc2-c2ccccc2)cc1` [Compound 708], in series [3], the “ETV1 inhibition” value is given as “ETV1 inhibitors”.

Turning to `O=C1Nc2ccccc2C1CCCc1nc(-c2cccc(F)c2)c(-c2cccc(F)c2)o1` (stereo not drawn) [Compound 770], the “activity against GATA3” value in series [4] (compounds at 5 μM) is “inactive against GATA3”. Moreover, the “activation of hSTING in ISRE-luc reporter assay” value in series [2] is recorded as “activate human STING (hSTING)”. In addition, the “GATA2 inhibition” value in series [5] is recorded as “GATA2 inhibitors”.

On to `c1ccc(-c2nc(CNCCc3c[nH]c4ccccc34)oc2-c2ccccc2)cc1` [Compound 795], for which, in series [6], the “activation of hSTING and/or mSTING in ISRE-luc reporter assay” value is on record as “activate hSTING and/or mSTING”. Further, the “activity against GATA3” value in series [4] (10 μM) is “inactive against GATA3”. Moreover, the “GATA2 inhibition” value in series [5] was “GATA2 inhibitors”.

As to `COc1cccc(-c2oc(CCCc3c[nH]c4ccccc34)nc2-c2ccc[nH]2)c1` [Compound 830], the “activation of hSTING in ISRE-luc reporter assay” value in series [2] is “activate hSTING”. The “GATA2 inhibition” value in series [5] is reported as “GATA2 inhibitors”. The “ETV1 inhibition” value in series [3] was “ETV1 inhibitors”.

`Fc1cccc(-c2oc(Cc3c[nH]c4ccccc34)nc2-c2ccco2)c1` [Compound 838]: the “activation of hSTING in ISRE-luc reporter assay” value in series [2] was “activate hSTING”. Besides, in series [5], the “GATA2 inhibition” value is “GATA2 inhibitors”. Also, in series [3], the “ETV1 inhibition” value is “ETV1 inhibitors”.

For the compound `C(=N\c1oc(-c2ccccc2)nc1Sc1ccccc1)/c1ccccc1` [Compound V151], the “ERG inhibition” value in series [1] is “ERG inhibitors”.
